Columns and labels:
Type in all cases: in vivo
[1] = tested on: B57BL/6J mice; assay: Cold stress-mediated immunosuppression in anti-platelet (CD41) Ig induced immune thrombocytopenia (ITP) model, platelet counts; settings: for rescue of cold stress-mediated immunosuppression (ITP model): FIG. 8
Method: (§1) Experiment outlines (A and C). The effects of tanshinone IIA treatments on the cold-mediated amelioration of immune thrombocytopenia (ITP) (B) and cold-suppressed bacterial clearance (D) were analyzed. The data are representative of three independent experiments with two mice per group (n=6). ** P<0.01 compared with the respective vehicle (25° C.) groups, ##P<0.01 compared with the respective tanshinone IIA 25° C. groups (B and D).
(§2) The effects of tanshinone I (A), crytotanshinone (B), tanshinone IIA sodium sulfate (C) treatments on the cold-mediated amelioration of immune thrombocytopenia (ITP) were analyzed. The data are representative of three independent experiments with two mice per group (n=6). ** P<0.01 compared with the respective vehicle (25° C.) groups, ##P<0.01 compared with the respective tanshinone IIA 25° C. groups.
(§3) Autoimmune thrombocytopenia (ITP) mouse model, through intravascular injections of anti-platelet (CD41) Ig following previously reported methods (Huang et al., Blood 2010; 116:5002-9), was employed to investigate the immunosuppressive property of cold exposure and restraint stress, and immune enhancing properties of tanshinone IIA and its derivatives. The B57BL/6J mice were intravenously injected with 0.1 mg/kg (body weight) of an antiplatelet monoclonal antibody (rat antimouse integrin αIIb/CD41 Ig, clone MWReg30, BD PharMingen) to induce ITP. Mice with or without injections of anti-CD41 Ig were subjected to cold exposure and restraint stress. To address the immune enhancing properties of tanshinone IIA, these mice were further treated with or without tanshinone I, tanshinone IIA, tanshinone IIA sodium sulfate, crytotanshinone (10-2 to 10 mg/kg) treatments. To determine the mouse platelet counts, whole blood samples (100-120 μL) of the mice were collected from the retro-orbital venous plexus and mixed with an anticoagulant, a citrate dextrose solution (38 mM citric acid, 75 mM sodium citrate, and 100 mM dextrose), in Eppendorf tubes. Subsequently, platelet counts were measured using a hematology analyzer (KX-21N, Sysmex) at various time intervals as previously described (Chan et al., Oncotarget 2018; 9:12781-95; Huang et al., Blood 2010; 116:5002-9).

[2] = tested on: B57BL/6J mice; assay: Restraint stress-mediated immunosuppression in anti-platelet (CD41) Ig induced immune thrombocytopenia (ITP) model, platelet counts; settings: for rescue of restraint stress-mediated immunosuppression (ITP model): restraint (psychological) stress, FIG. 7
Method: Experiment outlines (A). The effects of tanshinone IIA treatments on the restraint stress-mediated amelioration of immune thrombocytopenia (ITP) (B) were analyzed. The data are representative of three independent experiments with two mice per group (n=6). ** P<0.01 compared with the respective vehicle groups in the tanshinone IIA vs. vehicle treatments (B).
as §2, with “restraint stress-mediated” for “cold-mediated”, “(n=6). * P<0.05,” for “(n=6).”, “without stress (0 h)” for “(25° C.)”, “groups, #P<0.05,” for “groups,”, “IIA, without stress groups in the ITP experiments.” for “IIA 25° C. groups.”
as §3

[3] = tested on: B57BL/6J mice; assay: Cold stress-induced gastrointestinal leakage (circulating Evans blue); settings: stressed, 9 h groups with vs without TSNIIA, #P<0.05, FIG. 3
Method: (§4) Experiment outlines (A). The effects of tanshinone IIA treatments on the amelioration of cold exposure-induced gastrointestinal leakage (B) were analyzed. The data are representative of three independent experiments with two mice per group (n=6). ** P<0.01 compared with the respective 5 h, no stress groups, #P<0.05 compared with the respective stress groups of each time course (B). EB: Evans blue.
(§5) The results of the exemplary rescue of restraint stress-induced gastrointestinal leakage by tanshinone IIA (TSNIIA) treatments are shown in FIG. 1. Evans blue, a gastrointestinal non-absorbable dye, is able to bind circulating albumin to form dye-protein complexes, which cannot normally penetrate the endothelial cell layers of the vascular system, unless the tissue has been damaged (Yao et al., Contrast Media Mol Imaging 2018; 2018:7628037). Accordingly, circulating Evens blue levels are approximately and proportionally correlated to the levels of gastrointestinal injury.

[4] = tested on: cortisol; assay: Cold stress-induced plasma cortisol (ELISA); settings: mice, FIG. 5
Method: The time course on the effects of tanshinone IIA treatments on the cold-mediated amelioration of immune thrombocytopenia (ITP) (A) and cold-induced elevation of cortisol (B) was analyzed. The data are representative of three independent experiments with two mice per group (n=6). ** P<0.01 compared with the respective vehicle (25° C.)/vehicle (0 h) groups.
Blood samples were collected from experimental mice under cold stress or restraint stress for 7 h. The plasma levels of cortisol were measured using an ELISA kit (Cayman Chemical, Ann Arbor, Mich., USA) as previously described (Chan et al., Oncotarget 2018; 9:12781-95).

[5] = tested on: E. coli, BL21; assay: Cold-suppressed bacterial clearance (surviving bacteria in spleen); settings: mice challenged i.v. with E. coli, compared to vehicle control (without immunosuppression) groups, FIG. 4D
Method: as §1
The bacterium E. coli was cultured using standard methods. To analyze the immunosuppressive effects of cold exposure and restraint stress on bacterial clearance, following our previously developed methods (Chan et al., Oncotarget 2018; 9:12781-95), the experimental mice were challenged by intravenously administering bacteria (E. coli, BL21, 6×10^9 CFU/kg; no mortality within 24 h at 4° C.); a 40-h circulating equilibrium at a 25° C. environment was required before cold exposure (control groups: 25° C. exposure) and restraint stress. One day after treatment with cold exposure or restraint stress, the spleens of the euthanized mice were collected and weighed. After homogenization (homogenizer, BioSpec Products, Racine, Wis., USA) in PBS, surviving bacteria (colony forming units [CFUs]) in the spleen tissues were quantified using the standard plating method. […]

[6] = tested on: B57BL/6J mice; assay: Restraint stress-induced gastrointestinal leakage (circulating Evans blue); settings: stressed, 9 h groups with vs without TSNIIA, #P<0.05, FIG. 1
Method: as §4, with “restraint stress induced” for “cold exposure-induced”, “* P<0.05” for “** P<0.01”
as §5

Row | Molecule | rescue of cold stress-mediated immunosuppression (ITP model) [1] | rescue of restraint stress-mediated immunosuppression (ITP model) [2] | cold stress-induced gastrointestinal injury (circulating Evans blue levels) [3] | platelet counts after cold stress in anti-platelet (CD41) Ig induced thrombocytopenia ([1]; compared to vehicle control (without immunosuppression) groups, FIG. 4B) | cold stress-induced levels of circulating cortisol [4] | platelet counts after restraint stress in anti-platelet (CD41) Ig induced thrombocytopenia ([2]; restraint stress, compared to vehicle control (without immunosuppression) groups, FIG. 2) | bacterial clearance rate after cold stress [5] | restraint stress-induced gastrointestinal injury (circulating Evans blue levels) [6]
1 | C[C@H]1COC2=C1C(=O)C(=O)c1c2ccc2c1CCCC2(C)C [crytotanshinone] | exert similar immune enhancing properties under cold stress | exert similar immune enhancing properties under psychological stress |  |  |  |  |  | 
2 | Cc1coc2c1C(=O)C(=O)c1c-2ccc2c1CCCC2(C)C [tanshinone IIA] | exert similar immune enhancing properties under cold stress | exert similar immune enhancing properties under psychological stress | able to ameliorate cold stress-induced gastrointestinal injury | remain low and do not show statistical significance as compared to the vehicle control | counteract the cold stress-induced levels of circulating anti-inflammatory steroid hormone cortisol | remain low and do not show statistical significance as compared to the vehicle control | the bacterial clearance rate is high | able to ameliorate stress-induced gastrointestinal injury
3 | Cc1coc2c1C(=O)C(=O)c1c-2ccc2c(C)cccc12 [tanshinone I] | exert similar immune enhancing properties under cold stress | exert similar immune enhancing properties under psychological stress |  |  |  |  |  | 
4 | tanshinone IIA sodium sulfate | exert similar immune enhancing properties under cold stress | exert similar immune enhancing properties under psychological stress |  |  |  |  |  | 

From US20210393585A1, “METHOD FOR PREVENTING AND/OR TREATING A STRESS-INDUCED DISEASE” (TZU CHI UNIVERSITY, priority 2020, published 2021)
